The values that follow come from ChEMBL document CHEMBL2007661, “Compounds: GSK PKIS; Assays: UNC Frye lab” (2012).

Where “and” joins values, the source holds several entries; their conditions need not be identical. Equal entries are not always repeated.

Assay [1] concerns the target T1, Inhibitor of nuclear factor kappa-B kinase subunit alpha (Homo sapiens) (UniProt O15111).
T1 sequence (whole entry): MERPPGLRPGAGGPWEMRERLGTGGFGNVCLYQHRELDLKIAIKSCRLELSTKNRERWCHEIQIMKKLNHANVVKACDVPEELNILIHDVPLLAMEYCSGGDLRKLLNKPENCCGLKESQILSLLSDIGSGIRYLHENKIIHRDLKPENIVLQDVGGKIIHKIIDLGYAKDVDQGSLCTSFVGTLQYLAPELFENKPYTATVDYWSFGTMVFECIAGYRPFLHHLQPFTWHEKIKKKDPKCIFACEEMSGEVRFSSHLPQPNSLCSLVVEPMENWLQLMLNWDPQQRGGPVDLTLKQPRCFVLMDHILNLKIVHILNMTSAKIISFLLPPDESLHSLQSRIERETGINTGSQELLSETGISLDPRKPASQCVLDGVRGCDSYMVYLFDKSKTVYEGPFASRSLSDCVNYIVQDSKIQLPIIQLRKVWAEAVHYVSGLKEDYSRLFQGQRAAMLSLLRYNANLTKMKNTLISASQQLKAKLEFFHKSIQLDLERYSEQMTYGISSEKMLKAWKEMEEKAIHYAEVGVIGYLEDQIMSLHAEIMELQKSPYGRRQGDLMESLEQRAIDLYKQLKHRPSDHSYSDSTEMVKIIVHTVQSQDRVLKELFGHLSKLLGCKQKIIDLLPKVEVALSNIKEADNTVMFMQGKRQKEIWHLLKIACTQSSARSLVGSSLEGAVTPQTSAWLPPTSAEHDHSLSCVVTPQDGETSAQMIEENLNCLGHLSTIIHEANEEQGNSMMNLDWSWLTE
The conditions noted are these: at 1 µM.

The target of assay [2] is T2, Inhibitor of nuclear factor kappa-B kinase subunit beta (Homo sapiens) (UniProt O14920).
T2 sequence (whole entry): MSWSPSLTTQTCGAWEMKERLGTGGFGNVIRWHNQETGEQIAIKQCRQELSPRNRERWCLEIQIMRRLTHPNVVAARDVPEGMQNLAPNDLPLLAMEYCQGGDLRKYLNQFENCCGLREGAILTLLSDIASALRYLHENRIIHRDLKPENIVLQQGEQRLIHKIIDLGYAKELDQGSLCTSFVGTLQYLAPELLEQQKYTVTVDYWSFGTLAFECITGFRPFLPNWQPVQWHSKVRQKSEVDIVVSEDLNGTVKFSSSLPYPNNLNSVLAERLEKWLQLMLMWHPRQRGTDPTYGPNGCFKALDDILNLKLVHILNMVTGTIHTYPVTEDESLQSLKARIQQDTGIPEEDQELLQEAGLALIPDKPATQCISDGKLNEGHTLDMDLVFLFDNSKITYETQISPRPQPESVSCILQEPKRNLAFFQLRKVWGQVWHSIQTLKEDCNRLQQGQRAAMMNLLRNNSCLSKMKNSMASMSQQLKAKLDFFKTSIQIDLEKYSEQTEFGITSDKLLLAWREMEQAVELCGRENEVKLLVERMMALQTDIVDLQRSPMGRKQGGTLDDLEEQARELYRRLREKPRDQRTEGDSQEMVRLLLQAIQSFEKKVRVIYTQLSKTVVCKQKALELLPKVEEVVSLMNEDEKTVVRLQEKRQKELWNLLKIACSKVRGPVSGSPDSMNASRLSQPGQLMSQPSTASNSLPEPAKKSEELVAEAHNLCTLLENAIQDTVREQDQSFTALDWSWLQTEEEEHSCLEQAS
The settings on record: at 1 µM.

Assay [3] addresses T3, Tyrosine-protein kinase Mer (Homo sapiens) (UniProt Q12866).
T3 sequence (whole entry): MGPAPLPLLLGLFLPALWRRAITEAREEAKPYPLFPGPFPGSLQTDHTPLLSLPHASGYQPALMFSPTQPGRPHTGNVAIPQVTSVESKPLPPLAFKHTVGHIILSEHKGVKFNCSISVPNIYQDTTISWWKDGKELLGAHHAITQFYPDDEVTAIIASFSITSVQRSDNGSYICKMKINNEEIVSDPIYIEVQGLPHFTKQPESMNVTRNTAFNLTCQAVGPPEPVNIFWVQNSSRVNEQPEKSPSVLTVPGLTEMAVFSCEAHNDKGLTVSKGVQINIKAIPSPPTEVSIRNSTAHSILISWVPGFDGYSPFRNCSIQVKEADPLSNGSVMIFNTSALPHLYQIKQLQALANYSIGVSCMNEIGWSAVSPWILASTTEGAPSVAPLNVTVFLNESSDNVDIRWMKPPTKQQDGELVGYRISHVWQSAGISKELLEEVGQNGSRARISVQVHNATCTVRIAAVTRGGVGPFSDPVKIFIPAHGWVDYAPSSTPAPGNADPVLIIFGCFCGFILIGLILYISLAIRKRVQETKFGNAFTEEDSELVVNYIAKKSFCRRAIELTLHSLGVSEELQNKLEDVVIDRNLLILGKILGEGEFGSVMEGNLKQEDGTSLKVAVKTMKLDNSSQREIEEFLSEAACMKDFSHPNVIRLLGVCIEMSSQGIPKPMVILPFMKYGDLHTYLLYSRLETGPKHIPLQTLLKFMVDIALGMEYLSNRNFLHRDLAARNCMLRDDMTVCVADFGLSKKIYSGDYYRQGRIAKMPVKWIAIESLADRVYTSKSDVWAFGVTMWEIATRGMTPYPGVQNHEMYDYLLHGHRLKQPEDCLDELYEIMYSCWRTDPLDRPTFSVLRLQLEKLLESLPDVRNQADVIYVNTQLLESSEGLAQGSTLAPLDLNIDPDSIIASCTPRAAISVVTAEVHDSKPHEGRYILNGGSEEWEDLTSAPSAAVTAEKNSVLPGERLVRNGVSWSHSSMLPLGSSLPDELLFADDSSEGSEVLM
The conditions noted are these: at 10 µM.

Turning to `COc1cccc(-n2ncc3c(N/N=C/c4ccc(S(C)(=O)=O)cc4)ncnc32)c1`, the inhibition in assay [1] is 3% and 2%; in assay [2] it was -1%; in assay [3], 5%.
As for `CC1=C(C(=O)Nc2ccc3[nH]ncc3c2)C(c2ccc(F)cc2)N=C(c2ccc(C(F)(F)F)nc2)N1` (centres undefined), the inhibition was -4% in assay [1]; -2% and -3% in assay [2]; -4% in assay [3].
Regarding `COc1cccc(-n2ncc3c(N/N=C/c4ccc(C)cc4)ncnc32)c1`, the inhibition in assay [1] was 13%; in assay [2], 0% and -2%; in assay [3], 25%.

The inhibition is the relative decrease from the control value, in per cent.
